According to patent publication US20240182492A1, “AZAHETEROARYL COMPOUND, PREPARATION METHOD THEREFOR, AND APPLICATION THEREOF” (SHANGHAI BLUERAY BIOPHARMA CO., LTD., priority 2021, published 2024):

Tests used:
[1] = test system: B-cell non-Hodgkin lymphoma cells KARPAS-422; assay: Cell proliferation analysis, KARPAS-422, 13 days, CellTiter-Glo; type: cell-based, Human
Description: Example 55: Cell Proliferation Analysis
Human B-cell non-Hodgkin lymphoma cells KARPAS-422 S were cultured in culture flasks using standard cell culture conditions. The culture medium contains 15% fetal bovine serum (FBS, Invitrogen, product number 10099-141), 1% penicillin/streptomycin solution (P/S) RPMI-1640 (Invitrogen, product number 11875), and the culture flask is placed and cultured in a sterile incubator at 37° C., 95% relative humidity, and 5% CO2. In order to detect the effect of PRC2 inhibitors on cell proliferation, cells in the exponential growth phase were seeded into 96-well plates (Corning, product number 3904) at a density of 1×10^4 cells/well, and 100 μL of medium was added to each well. Subsequently, the compounds disclosed herein at different concentrations were added to the wells seeded with cells (9 concentration gradients were set for each compound, and the highest detection concentration was 10 μM, 3-fold gradient dilution), and 2 repeats in parallel were set for each treatment concentration. The final concentration of DMSO is 0.5%. Then the number of surviving cells was counted with Vi-CELL (Beckman Coulter) every 3-4 days. The cells counted each time were seeded into a new 96-well plate at the same density (1×10^4 cells/well). The wells were supplemented with fresh medium to 100 μL, and different concentrations of the compound were added at the same time. The cells were cultured until the 13th day, on which 100 μL of CellTiter-Glo (CellTiter-GloCellTiter-GloCellTiter-GloCTG) (Promega, Product No. G7573) was added to each well. The plate was placed for 10-20 minutes in the dark at room temperature, and Molecular Devices and SpectraMax i3X were used to read the luminous signal. The data were fitted to a dose-response curve using GraphPad prisim5 and the IC50 values of the tested compounds were obtained.

[2] = target: T1, EED protein (full-length, His6 tag) binding to H3K27me3 polypeptide (Homo sapiens, UniProt O75530); assay: AlphaScreen evaluation of blocking the binding of EED to H3K27Me3; conditions: EED / biotinylated H3K27me3 peptide competition
T1 construct: The full-length EED protein (441 amino acids) with His6 tag
Description: Example 53: Evaluation of the Effect of the Compound in Blocking the Binding of EED to H3K27Me3 by AlphaScreen (a-Screening) Method
First, compound solutions with different concentration gradients are prepared. Compound powder is dissolved in DMSO to form mother liquor. 1.5 μL of the compound mother liquor is taken to 198.5 μL reaction buffer (25 mM HEPES (pH 8.0), 50 mM NaCl, 0.015% Tween 20, 0.5% BSA) and the solution is mix uniformly, and then 3-fold gradient dilution is performed with the above buffer containing 0.75% DMSO. 9 different test concentrations are set for the same compound. 5 μL of compounds with different concentration gradients was taken to ProxiPlate-384 Plus, White detection plate (PerkinElmer, 6008280), and 2 parallel replicates are set for each concentration gradient.
Next, a binding blocking reaction is performed. The full-length EED protein (441 amino acids) with His6 tag is diluted to 60 nM with the above buffer, and the biotinylated polypeptide fragment H3K27me3 (amino acids 19-33) (Biotinylated-H3K27me3) is diluted to 75 nM with the same buffer. 5 μL of 75 nM peptide fragments and 5 μL of 60 nM protein are transferred to the testing wells containing the compound respectively. The testing plate is sealed with a film, and is incubated for 30 minutes at room temperature.
Finally, AlphaScreen method is used for detection. Before use, nickel chelate acceptor beads and streptavidin donor beads (Perkin Elmer, product number 6760619M) are mixed into the above reaction buffer at a ratio of 1:1, and then 5 μL of the above pre-mixed testing solution is added to each testing well. The final concentration of the donor beads and acceptor beads is 5 μg/mL. The testing plate is covered with tin foil and placed at room temperature in the dark for 1 hour. Signals are read using an AlphaScreen detector on a Spectra max i3. The AlphaScreen signal is normalized according to the readings obtained from the positive control (maximum signal control) and negative control (minimum signal control) to give the inhibition rate of different concentrations of the compound. After that, non-linear regression analysis was performed with GraphPad Prism 5, and dose-response equation Y=Bottom+(Top−Bottom)/(1+10^((Log IC50−X)*HillSlope)) is used to make an inhibition curve, obtaining the IC50 value of each compound. […]

[3] = test system: trimethylation level of histone H3K27 in G401 cells; assay: ELISA (H3K27 trimethylation) analysis in G401 cells; type: cell-based; conditions: H3K27me3 normalized by H3
Description: Example 54: ELISA (H3K27 Trimethylation) Analysis
Representative compounds of the present disclosure are diluted in DMSO with 3-fold gradient, and 10 concentration gradients are tested per compound. The maximum testing concentration is 10 μM. The compound is diluted 200-fold into G401 cells cultured in 96-well plates (the final concentration of DMSO is 0.5%). After the cells are cultured for 72 hours, the trimethylation level of histone H3K27 is detected by ELISA method.
Histone extraction: compound-treated cells in a 96-well plate are washed 3 times with 1×PBS (10×PBS buffer (80 g NaCl (Sigma, Product No. S3014), 2 g KCl (Sigma, Product No. 60128), 14.4 g Na2HAPO4 (Sigma, Product No. S5136) and 2.4 g KH2PO4 (Sigma, Product No. P9791) are added to 1 L water, pH to 7.4), and 100 μL of 0.4N HCl is added to each well. The 96-well plate is placed at 4° C. and gently shaken for 2 hours to lyse the cells. The cell lysate is then neutralized with 80 μL of neutralization buffer (0.5M disodium hydrogen phosphate, pH 12.5, 2.5 mM DTT; 1% cocktail (Sigma, Product No. P8340) (mixing the cell lysate and neutralization buffer thoroughly).
ELISA detection method: the cell lysates are transferred in parallel to two 384-well assay plates (PerkinElmer, OptiPlate-384HB, Product No. 6007290). One plate is used to detect the trimethylation level of H3K27, and the other plate is used to measure the level of H3. PBS is adjusted to a final volume of 50 μL/well. The wells are coated overnight at 4° C. On the next day, the solution in the wells was discarded. TBST buffer (1 xTBS (10×TBS: 24.2 g Tris (Sigma, Product No. T6066) and 80 g NaCl (Sigma, Product No. S3014) are added to 1 L water, and pH is adjusted to 7.6 with HCl) and 0.1% Tween-20) is used to wash it 5 times, and the water is dried on absorbent papers. 70 μL of blocking buffer (TBST, 5% BSA) is added to the coated reaction wells, and the wells are incubated for 1 hour at room temperature. The blocking buffer was discarded, and the primary antibody is added (30 μL/well). The required primary antibodies are diluted with blocking buffer, and the dilution ratios were as follows: anti-H3K27me3 antibody (Cell Signaling Technology, Product No. 9733), 1:2000 dilution; anti-H3 antibody (Cell Signaling Technology, Product No. 4499), 1:10000 dilution. After adding the primary antibody, the wells are incubated at room temperature for 1 hour. After washing with TBST for 5 times, the water are dried. The secondary antibody (30 μL/well) is added to each reaction well, and the wells are incubated at room temperature for 1 hour. Secondary antibody (anti-rabbit antibody (Jackson ImmunoResearch, Product No. 111-035-003)) is used after dilution 2000-fold in blocking buffer. After 1 hour, it is washed with TBST and dried. 30 μL of ECL substrate (Pierce, Product No. 34080) is added to each well and centrifuged for 30 seconds at 2000 rpm. Signal of each sample is detected using Molecular Devices, SpectraMax. Data processing: H3K27 methylation readings are first normalized by H3 signal. 0.500 DM8)-treated sample is used as a control, and the inhibition percentage of the compound is calculated. The data is fitted to a dose-response curve using the GraphPad prisim5 program, obtaining the IC50 values of the test compounds.

[4] = Homo sapiens, KARPAS-422, 312 h, Karpas-422, 13 days

T1 sequence (O75530 whole entry): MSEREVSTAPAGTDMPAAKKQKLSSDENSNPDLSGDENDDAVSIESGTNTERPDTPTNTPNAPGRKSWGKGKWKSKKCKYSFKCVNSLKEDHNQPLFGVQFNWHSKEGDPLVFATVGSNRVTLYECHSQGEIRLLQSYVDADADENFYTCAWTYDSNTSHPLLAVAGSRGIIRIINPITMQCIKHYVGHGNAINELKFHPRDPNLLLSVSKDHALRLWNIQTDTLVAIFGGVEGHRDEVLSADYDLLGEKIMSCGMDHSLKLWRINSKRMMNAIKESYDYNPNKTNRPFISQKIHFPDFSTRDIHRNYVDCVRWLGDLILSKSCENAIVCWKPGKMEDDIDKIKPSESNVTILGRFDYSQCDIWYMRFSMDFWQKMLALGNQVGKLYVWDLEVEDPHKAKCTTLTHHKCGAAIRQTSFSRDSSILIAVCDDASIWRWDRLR

IC50 [1, 4] | IC50 [2] | IC50 ([1]; Karpas-422, 13 days) | Compound | IC50 ([3]; Homo sapiens, G-401, 72 h) | IC50 ([3]; 72 hours) | IC50 ([1]; Homo sapiens, KARPAS-422, 312 h) | IC50 ([3]; Homo sapiens, G-401, 72 hours)
0.0016 µM | 0.0055 µM | – | OC1(c2ccc(-c3cnc(NCc4c(F)ccc5c4CCO5)n4cnnc34)c3ncnn23)CCC1 [1-[8-(5-{[(5-fluoro-2,3-dihydro-1-benzofuran-4-yl)methyl]amino]-[1,2,4]triazolo[4,3-c]pyrimidin-8-yl)-[1,2,4]triazolo[1,5-a]pyridin-5-yl]cyclobutan-1-ol] | 0.0003 µM | – | – | –
0.0049 µM | 0.003 µM | – | OC(c1ccc(-c2cnc(NCc3c(F)ccc4c3CCO4)n3cnnc23)c2ncnn12)(C(F)F)C(F)F [1,1,3,3-tetrafluoro-2-(8-(5-(((5-fluoro-2,3-dihydrobenzofuran-4-yl)methyl)amino)-[1,2,4]triazolo[4,3-c]pyrimidin-8-yl)-[1,2,4]triazolo[1,5-a]pyridin-5-yl)propan-2-ol] | 0.0012 µM | – | – | –
0.0041 µM | 0.0054 µM | – | CCC(C)(O)c1ccc(-c2cnc(NCc3c(F)ccc4c3CCO4)n3cnnc23)c2ncnn12 (single isomer, unassigned) [Compound a] | 0.0012 µM | – | – | –
0.0146 µM | 0.0057 µM | – | CC(C)(O)c1c(F)cc(-c2cnc(NCc3c(F)ccc4c3CCO4)n3cnnc23)c2ncnn12 [2-(6-fluoro-8-(5-(((5-fluoro-2,3-dihydrobenzofuran-4-yl)methyl)amino)-[1,2,4]triazolo[4,3-c]pyrimidin-8-yl)-[1,2,4]triazolo[1,5-a]pyridin-5-yl)propan-2-ol] | 0.0059 µM | – | – | –
0.0065 µM | 0.0084 µM | – | Cc1nc2c(-c3cnc(NCc4c(F)ccc5c4CCO5)n4cnnc34)cnc(C(C)(C)O)n2n1 [2-(8-(5-(((5-fluoro-2,3-dihydrobenzofuran-4-yl)methyl)amino)-[1,2,4]triazolo[4,3-c]pyrimidin-8-yl)-2-methyl-[1,2,4]triazolo[1,5-c]pyrimidin-5-yl)propan-2-ol] | 0.0006 µM | – | – | –
– | 0.0048 µM | 0.0025 µM | CC(O)(CF)c1ccc(-c2cnc(NCc3c(F)ccc4c3CCO4)n3cnnc23)c2ncnn12 (single isomer, unassigned) [Compound h] | – | 0.0012 µM | – | –
– | 0.0047 µM | – | Fc1ccc2c(c1CNc1ncc(-c3cccn4ncnc34)c3nncn13)CCO2 [8-([1,2,4]triazolo[1,5-a]pyridin-8-yl)-N-((5-fluoro-2,3-dihydrobenzofuran-4-yl)methyl)-[1,2,4]triazolo[4,3-c]pyrimidin-5-amine] | – | – | – | –
0.0022 µM | 0.0043 µM | – | CC(O)(CF)c1ccc(-c2cnc(NCc3c(F)ccc4c3CCO4)n3cnnc23)c2ncnn12 (stereo not drawn) [1-fluoro-2-[8-(5-{[(5-fluoro-2,3-dihydro-1-benzofuran-4-yl)methyl]amino}-[1,2,4]triazolo[4,3-c]pyrimidin-8-yl)-[1,2,4]triazolo[1,5-a]pyridin-5-yl]propan-2-ol] | 0.0011 µM | – | – | –
0.0015 µM | 0.004 µM | – | CC(O)(CF)c1ccc(-c2cnc(NCc3c(F)ccc4c3CCO4)n3cnnc23)c2ncnn12 (single isomer, unassigned) [Compound g] | 0.0006 µM | – | – | –
0.0048 µM | 0.0051 µM | – | CC(O)(c1ccc(-c2cnc(NCc3c(F)ccc4c3CCO4)n3cnnc23)c2ncnn12)C(F)F (stereo not drawn) [1,1-difluoro-2-(8-(5-(((5-fluoro-2,3-dihydrobenzofuran-4-yl)methyl)amino)-[1,2,4]triazolo[4,3-c]pyrimidin-8-yl)-[1,2,4]triazolo[1,5-a]pyridin-5-yl)propan-2-ol] | 0.0015 µM | – | – | –
– | 0.0089 µM | – | Cc1ccc(-c2cnc(NCc3c(F)ccc4c3CCO4)n3cnnc23)c2ncnn12 [N-((5-fluoro-2,3-dihydrobenzofuran-4-yl)methyl)-8-(5-methyl-[1,2,4]triazolo[1,5-a]pyridin-8-yl)-[1,2,4]triazolo[4,3-c]pyrimidin-5-amine] | – | – | – | –
– | 0.0035 µM | – | Cc1ccc(-c2cnc(NCc3c(F)ccc4c3[C@H]3C[C@H]3O4)n3cnnc23)c2ncnn12 [N-(((1aR,6bR)-5-fluoro-1a,6b-dihydro-1H-cyclopropeno[b]benzofuran-6-yl)methyl)-8-(5-methyl-[1,2,4]triazolo[1,5-a]pyridin-8-yl)-[1,2,4]triazolo[4,3-c]pyrimidin-5-amine] | – | – | – | –

Compound | IC50 [1, 4] | IC50 [2] | IC50 ([1]; Karpas-422, 13 days) | IC50 ([3]; Homo sapiens, G-401, 72 h) | IC50 ([3]; 72 hours) | IC50 ([1]; Homo sapiens, KARPAS-422, 312 h) | IC50 ([3]; Homo sapiens, G-401, 72 hours)
CC(O)(c1ccc(-c2cnc(NCc3c(F)ccc4c3CCO4)n3cnnc23)c2ncnn12)C(F)(F)F (single isomer, unassigned) [Compound c] | 0.0095 µM | 0.0025 µM | – | 0.0017 µM | – | – | –
CC(O)(c1ccc(-c2cnc(NCc3c(F)ccc4c3CCO4)n3cnnc23)c2ncnn12)C(F)(F)F (single isomer, unassigned) [Compound d] | – | 0.0055 µM | – | – | – | 0.0087 µM | 0.0047 µM
